Values after ≈ are worked out from the molar mass of the structure shown. Where a name gives a salt, the structure may show the parent alone.
Tests used:
[1] = test system: Hep G2 transplanted tumor; assay: Transplanted tumor of liver cancer in nude mice; settings: BS-FC-308 35 mg/kg/time, erlotinib hydrochloride 20 mg/kg/time
Experimental: Liver cancer cell lines: Hep G2 (human liver cancer cell line);
Animal: BALBc nude mice (immunodeficient mice), 8 weeks, female, purchased from Shanghai Laboratory Animal Center of Chinese Academy of Sciences, China.
Under sterile conditions, the Hep G2 cells in the logarithmic growth phase were respectively collected and injected subcutaneously in an amount of 2.3×10^7/0.2 mL/nude mice (cell viability >90%) into the left subaxillary of the nude mice, thus establishing a transplanted tumor model of liver cancer in nude mice. The mice were administered from the second day after inoculation. The experimental group was intragastrically administered with the experimentally designed amount, the negative control group was intragastrically administered with sterile water, and the positive control group was intragastrically administered with erlotinib hydrochloride. Each mouse was intragastrically administered in 0.4 ml each time and 3 times a day, at 8:00, 14:00 and 20:00, with 6-hour intervals. The administrations were successive for 10 days. The day before administration was deemed as Day 0 and the weight and tumor size of the mice were determined every 5 days to produce a dynamic plot on weight and tumor growth (the experimental results are presented as mean±SD). On Day 28, the mice were sacrificed and the tumors were taken out and weighed. The tumor inhibition rate (%) after the effect of the medicament was calculated based on a tumor inhibition rate of the control group being zero.
The experimental data for each group were analyzed by using the One-way ANOVA method in the SPSS 19.0 statistical software and were compared with the control group for significance of difference.

[2] = test system: human colon cancer cell line LoVo; settings: LoVo tumor-bearing nude mice, 60 days; cited from earlier work
[3] = test system: MGC-803 (human gastric cancer) cells; assay: MTT cell growth inhibition, solid tumor cells; format: cell-based; settings: MGC-803, 72 h
Description: (§1) Hep-2 (laryngeal carcinoma), A549 (human lung cancer), CaES-17 (esophageal cancer cell), PC-3 (prostate cancer), CNE (nasopharyngeal carcinoma cell) and SK-OV-3 (ovarian cancer cell), all of which were purchased from China Center For Type Culture Collection; RKO (human colon adenocarcinoma cell), MGC-803 (human gastric cancer cell), MG-63 (osteosarcoma), and U87-MG (malignant glioma cell), all of which were purchased from Fuxiang Bio-tech Co. Ltd., Shanghai, China; PANC-1 (pancreatic cancer), Becap37 (human breast cancer cell), Hela (human cervical cancer cell) and Hep G2 (human liver cancer cell), all of which were donated by Cancer Research Institute of Zhejiang University, China.
(§2) 6000 well-growing human solid tumor cells were obtained and inoculated into wells of a 96-well cell culture plate. The culture medium was DMEM High Glucose cell culture medium containing 10% fetal bovine serum. The plate was placed in a carbon dioxide cell incubator (5% CO2) at 37° C. and incubated for 24 hours. After added with 7-substituted fangchinoline derivatives of different concentration and mixing uniformly, the plate was placed in a carbon dioxide cell incubator (5% CO2) at 37° C. and incubated for 72 hours. Then the viable cell concentration was determined by the MTT method.

[4] = test system: MG-63 (osteosarcoma) cells; assay: MTT cell growth inhibition, solid tumor cells; format: cell-based; settings: Homo sapiens, MG-63, 72 h
Description: as §1, §2

[5] = test system: Becap-37 (human breast cancer) cells; assay: MTT cell growth inhibition, solid tumor cells; format: cell-based; settings: Homo sapiens, 72 h
Description: as §1, §2

[6] = test system: U87-MG (malignant glioma) cells; assay: MTT cell growth inhibition, solid tumor cells; format: cell-based; settings: Homo sapiens, U-87 MG, 72 h
Description: as §1, §2

[7] = test system: A549 (human lung cancer) cells; assay: MTT cell growth inhibition, solid tumor cells; format: cell-based; settings: Homo sapiens, A549, 72 h
Description: as §1, §2

[8] = test system: Hep G2 (human liver cancer) cells; assay: MTT cell growth inhibition, solid tumor cells; format: cell-based; settings: Homo sapiens, HepG2, 72 h
Description: as §1, §2

[9] = test system: RKO (human colon adenocarcinoma) cells; assay: MTT cell growth inhibition, solid tumor cells; format: cell-based; settings: Homo sapiens, 72 h
Description: as §1, §2

[10] = test system: Hep-2 (laryngeal carcinoma) cells; assay: MTT cell growth inhibition, solid tumor cells; format: cell-based; settings: Homo sapiens, HEp-2, 72 h
Description: as §1, §2

[11] = test system: Hela (human cervical cancer) cells; assay: MTT cell growth inhibition, solid tumor cells; format: cell-based; settings: Homo sapiens, HeLa, 72 h
Description: as §1, §2

[12] = test system: PC-3 (prostate cancer) cells; assay: MTT cell growth inhibition, solid tumor cells; format: cell-based, human; settings: Homo sapiens, 72 h
Description: as §1, §2

[13] = test system: SK-OV-3 (ovarian cancer) cells; assay: MTT cell growth inhibition, solid tumor cells; format: cell-based, human; settings: Homo sapiens, SK-OV-3, 72 h
Description: as §1, §2

[14] = test system: CaEs-17 (esophageal cancer) cells; assay: MTT cell growth inhibition, solid tumor cells; format: cell-based, human; settings: Homo sapiens, CaEs17, 72 h
Description: as §1, §2

[15] = test system: CNE (nasopharyngeal carcinoma) cells; assay: MTT cell growth inhibition, solid tumor cells; format: cell-based, human; settings: Homo sapiens, 72 h
Description: as §1, §2

[16] = test system: PANC-1 (pancreatic cancer) cells; assay: MTT cell growth inhibition, solid tumor cells; format: cell-based, human; settings: Homo sapiens, PANC-1, 72 h
Description: as §1, §2

[17] = test system: RPMI 8226 (multiple myeloma) cells; assay: MTT cell growth inhibition, multiple myeloma cells; format: cell-based, human; settings: Homo sapiens, RPMI-8226, 72 h
Experimental: Myeloma cell lines: RPMI8226 (multiple myeloma), purchased from Fuxiang Bio-tech Co. Ltd., Shanghai, China.
(§3) 6000 well-growing cells were obtained and inoculated into wells of a 96-well cell culture plate. The culture medium was a RPMI-1640 cell culture medium containing 10% fetal bovine serum. After adding the 7-substituted fangchinoline derivatives of different concentrations the next day and mixing uniformly, the plate was placed in a carbon dioxide cell incubator (5% CO2) at 37° C. and incubated for 72 hours. Then the viable cell concentration was determined by the MTT method.

[18] = test system: K562/ADR (K562adr, drug-resistant chronic myeloid leukemia) cells; assay: MTT cell growth inhibition, leukemia cells; format: cell-based; settings: Homo sapiens, K562/Adr, 72 h
Description: (§4) Leukemia cell lines: leukemia cell lines: K562adr (drug-resistant, chronic myeloid leukemia, CML), NB4 (acute promyelocytic leukemia, AML), Kasumi-1 (acute myeloid leukemia M2 type, AML-M2), Jurkat (acute lymphoblastic leukemia, ALL), all of which were donated by Cancer Research Institute of Zhejiang University, China; and H9 (acute lymphoblastic leukemia, ALL), which was purchased from China Center for Type Culture Collection.
(§5) Reagents: The standard sample of fangchinoline (FAN) was purchased from Ci Yuan Biotechnology Co., Ltd., Shaanxi, China; and the 7-substituted fangchinoline derivatives according to the present invention.
as §3, with “well-growing leukemia” for “well-growing”, “incubating” for “incubated”

[19] = test system: NB4 (acute promyelocytic leukemia) cells; assay: MTT cell growth inhibition, leukemia cells; format: cell-based; settings: Homo sapiens, 72 h
Description: as §4, §5
as §3, with “well-growing leukemia” for “well-growing”, “incubating” for “incubated”

[20] = test system: Kasumi-1 (acute myeloid leukemia M2 type) cells; assay: MTT cell growth inhibition, leukemia cells; format: cell-based, human; settings: Homo sapiens, Kasumi 1, 72 h
Description: as §4, §5
as §3, with “well-growing leukemia” for “well-growing”, “incubating” for “incubated”

[21] = test system: H9 (acute lymphoblastic leukemia) cells; assay: MTT cell growth inhibition, leukemia cells; format: cell-based, human; settings: Homo sapiens, 72 h
Description: as §4, §5
as §3, with “well-growing leukemia” for “well-growing”, “incubating” for “incubated”

[22] = test system: Jurkat (acute lymphoblastic leukemia) cells; assay: MTT cell growth inhibition, leukemia cells; format: cell-based, human; settings: Homo sapiens, Jurkat, 72 h
Description: as §4, §5
as §3, with “well-growing leukemia” for “well-growing”, “incubating” for “incubated”

SMILES: C#Cc1cccc(Nc2ncnc3cc(OCCOC)c(OCCOC)cc23)c1 [Erlotinib hydrochloride, reference compound]
- Mass of tumor ([1]; Hep G2 transplanted tumor, Day 28, intragastric 3 times a day for 10 days): 839 ± 270.62 mg
- Tumor Inhibition rate ([1]; Hep G2 transplanted tumor, Day 28, intragastric 3 times a day for 10 days, control = 0): 34.5%
- Body Weight (g) Initial ([1]; Hep G2 tumor nude mice, before administration, intragastric 3 times a day, mean±SD): 21.4 ± 0.26 g
- Body Weight (g) Final ([1]; Hep G2 tumor nude mice, final, intragastric 3 times a day for 10 days, mean±SD): 20.4 ± 1.72 g

SMILES: COc1ccc2cc1Oc1ccc(cc1)C[C@H]1c3cc(c(OC)cc3CCN1C)Oc1c(O)c(OC)cc3c1[C@H](C2)N(C)CC3 [FAN, Fangchinoline, reference compound]
- adverse reactions during the administration [2]: do not exhibit adverse reactions
- IC50 [3]: 1.08 µg/mL (≈ 1.77 µM)
- IC90 [3]: 6.42 µg/mL (≈ 10.5 µM)
- IC50 [4]: 1.7 µg/mL (≈ 2.79 µM)
- IC90 [4]: 3.7 µg/mL (≈ 6.08 µM)
- IC50 [5]: 1.79 µg/mL (≈ 2.94 µM)
- IC90 [5]: 6.2 µg/mL (≈ 10.2 µM)
- IC50 [6]: 1.12 µg/mL (≈ 1.84 µM)
- IC90 [6]: 3.79 µg/mL (≈ 6.23 µM)
- IC50 [7]: 3.26 µg/mL (≈ 5.36 µM)
- IC90 [7]: 9.81 µg/mL (≈ 16.1 µM)
- IC50 [8]: 1.81 µg/mL (≈ 2.97 µM)
- IC90 [8]: 5.23 µg/mL (≈ 8.59 µM)
- IC50 [9]: 0.92 µg/mL (≈ 1.51 µM)
- IC90 [9]: 3.11 µg/mL (≈ 5.11 µM)
- IC50 [10]: 3.6 µg/mL (≈ 5.91 µM)
- IC90 [10]: 10 µg/mL (≈ 16.5 µM)
- IC50 [11]: 1.96 µg/mL (≈ 3.22 µM)
- IC90 [11]: 6.12 µg/mL (≈ 10.1 µM)
- IC50 [12]: 4.08 µg/mL (≈ 6.7 µM)
- IC90 [12]: 7.64 µg/mL (≈ 12.6 µM)
- IC50 [13]: 3.61 µg/mL (≈ 5.93 µM)
- IC90 [13]: 14.5 µg/mL (≈ 23.8 µM)
- IC50 [14]: 1.94 µg/mL (≈ 3.19 µM)
- IC90 [14]: 8.98 µg/mL (≈ 14.8 µM)
- IC50 [15]: 2.4 µg/mL (≈ 3.94 µM)
- IC90 [15]: 5.7 µg/mL (≈ 9.36 µM)
- IC50 [16]: 3.14 µg/mL (≈ 5.16 µM)
- IC90 [16]: 11.6 µg/mL (≈ 19.1 µM)
- IC50 [17]: 0.04 µg/mL (≈ 0.0657 µM)
- IC90 [17]: 0.5 µg/mL (≈ 0.821 µM)
- IC50 [18]: 0.36 µg/mL (≈ 0.591 µM)
- IC90 [18]: 4.13 µg/mL (≈ 6.78 µM)
- IC50 [19]: 0.58 µg/mL (≈ 0.953 µM)
- IC90 [19]: 2.59 µg/mL (≈ 4.25 µM)
- IC50 [20]: 1.11 µg/mL (≈ 1.82 µM)
- IC90 [20]: 4.11 µg/mL (≈ 6.75 µM)
- IC50 [21]: 2.4 µg/mL (≈ 3.94 µM)
- IC90 [21]: 6.6 µg/mL (≈ 10.8 µM)
- IC50 [22]: 1.73 µg/mL (≈ 2.84 µM)
- IC90 [22]: 5.25 µg/mL (≈ 8.62 µM)
